Laboratory results: ChEMBL document CHEMBL1131832, “Synthesis and pharmacological activity of diarylindole derivatives. Cytotoxic agents based on combretastatins” (Bioorg Med Chem Lett, 1999)

Tested on: P388
Assay: Antineoplastic activity against P-388 (murine lymphoid neoplasm) cell line.
Format: functional, cell-based
Conditions: Mus musculus

Structure (SMILES)	IC50
COc1cc(CC(=O)c2ccoc2)cc(OC)c1OC	7.24 µM
COc1ccc2[nH]c(-c3ccc4c(c3)OCO4)c(-c3cc(OC)c(OC)c(OC)c3)c2c1	2.29 µM
COc1ccc2[nH]c(-c3ccoc3)c(-c3cc(OC)c(OC)c(OC)c3)c2c1	3.24 µM
COc1ccc2[nH]c(-c3ccc(C)o3)c(-c3cc(OC)c(OC)c(OC)c3)c2c1	5.13 µM
COc1cc(CC(O)c2ccoc2)cc(OC)c1OC (stereo not given)	36.3 µM
COc1ccc2[nH]c(-c3ccco3)c(-c3cc(OC)c(OC)c(OC)c3)c2c1	0.708 µM
COc1cc(CC(O)c2ccc3ccccc3c2)cc(OC)c1OC (stereo not given)	2.95 µM
COc1cc(CC(=O)c2ccco2)cc(OC)c1OC	> 100 µM
COc1cc(CC(=O)c2ccc(C)o2)cc(OC)c1OC	8.71 µM
COc1cc(CC(O)c2ccc3c(c2)OCO3)cc(OC)c1OC (stereo not given)	> 100 µM
COc1cc(CCc2ccco2)cc(OC)c1OC	19.1 µM
COc1cc(CC(O)c2ccco2)cc(OC)c1OC (stereo not given)	18.2 µM
COc1cc(CCc2ccoc2)cc(OC)c1OC	> 100 µM
COc1cc(CCc2ccc(C)o2)cc(OC)c1OC	7.24 µM
COc1cc(CC(=O)c2ccc3ccccc3c2)cc(OC)c1OC	15.1 µM
COc1ccc2[nH]c(-c3ccc4ccccc4c3)c(-c3cc(OC)c(OC)c(OC)c3)c2c1	1.12 µM

Tested on: HT-29
Assay: Antineoplastic activity against HT-29 (human colon adenocarcinoma) cell line.
Format: functional, cell-based
Conditions: not given

Structure (SMILES)	IC50
COc1cc(CC(=O)c2ccoc2)cc(OC)c1OC	7.24 µM
COc1ccc2[nH]c(-c3ccc4c(c3)OCO4)c(-c3cc(OC)c(OC)c(OC)c3)c2c1	6.31 µM
COc1ccc2[nH]c(-c3ccoc3)c(-c3cc(OC)c(OC)c(OC)c3)c2c1	3.24 µM
COc1ccc2[nH]c(-c3ccc(C)o3)c(-c3cc(OC)c(OC)c(OC)c3)c2c1	6.46 µM
COc1cc(CC(O)c2ccoc2)cc(OC)c1OC (stereo not given)	72.4 µM
COc1ccc2[nH]c(-c3ccco3)c(-c3cc(OC)c(OC)c(OC)c3)c2c1	1.32 µM
COc1cc(CC(O)c2ccc3ccccc3c2)cc(OC)c1OC (stereo not given)	2.95 µM
COc1cc(CC(=O)c2ccco2)cc(OC)c1OC	> 100 µM
COc1cc(CC(=O)c2ccc(C)o2)cc(OC)c1OC	17.4 µM
COc1cc(CC(O)c2ccc3c(c2)OCO3)cc(OC)c1OC (stereo not given)	> 100 µM
COc1cc(CCc2ccco2)cc(OC)c1OC	19.1 µM
COc1cc(CC(O)c2ccco2)cc(OC)c1OC (stereo not given)	36.3 µM
COc1cc(CCc2ccoc2)cc(OC)c1OC	> 100 µM
COc1cc(CCc2ccc(C)o2)cc(OC)c1OC	7.24 µM
COc1cc(CC(=O)c2ccc3ccccc3c2)cc(OC)c1OC	30.2 µM
COc1ccc2[nH]c(-c3ccc4ccccc4c3)c(-c3cc(OC)c(OC)c(OC)c3)c2c1	2.24 µM

Tested on: HCT-116
Assay: Compound was evaluated for cytostatic activity against […] colon cancer cell line
Format: functional
Conditions: Homo sapiens

Structure (SMILES)	GI50
COc1ccc2[nH]c(-c3ccco3)c(-c3cc(OC)c(OC)c(OC)c3)c2c1	138 nM

Same assay, conditions: Homo sapiens, read-out: Log LC50 (the source's name) (converted)

Structure (SMILES)	CC50
COc1ccc2[nH]c(-c3ccco3)c(-c3cc(OC)c(OC)c(OC)c3)c2c1	2510 nM

Tested on: NCI-H522
Assay: Compound was evaluated for cytostatic activity against NCI-H522 non-small cell lung cancer cell line
Format: functional
Conditions: Homo sapiens

Structure (SMILES)	GI50
COc1ccc2[nH]c(-c3ccco3)c(-c3cc(OC)c(OC)c(OC)c3)c2c1	75.9 nM

Same assay, conditions: Homo sapiens, read-out: Log LC50 (the source's name) (converted)

Structure (SMILES)	CC50
COc1ccc2[nH]c(-c3ccco3)c(-c3cc(OC)c(OC)c(OC)c3)c2c1	3.39 µM

Tested on: SF-539
Assay: Compound was evaluated for cytostatic activity against SF-539 CNS cancer cell line
Format: functional
Conditions: Homo sapiens

Structure (SMILES)	GI50
COc1ccc2[nH]c(-c3ccco3)c(-c3cc(OC)c(OC)c(OC)c3)c2c1	117 nM

Same assay, conditions: Homo sapiens, read-out: Log LC50 (the source's name) (converted)

Structure (SMILES)	CC50
COc1ccc2[nH]c(-c3ccco3)c(-c3cc(OC)c(OC)c(OC)c3)c2c1	933 nM

Tested on: SF-295
Assay: Compound was evaluated for cytostatic activity against SF-295 CNS cancer cell line
Format: functional
Conditions: Homo sapiens

Structure (SMILES)	GI50
COc1ccc2[nH]c(-c3ccco3)c(-c3cc(OC)c(OC)c(OC)c3)c2c1	138 nM

Same assay, conditions: Homo sapiens, read-out: Log LC50 (the source's name) (converted)

Structure (SMILES)	CC50
COc1ccc2[nH]c(-c3ccco3)c(-c3cc(OC)c(OC)c(OC)c3)c2c1	23.4 µM

Tested on: OVCAR-3
Assay: Compound was evaluated for cytostatic activity against OVCAR-3 ovarian cancer cell line
Format: functional
Conditions: Homo sapiens

Structure (SMILES)	GI50
COc1ccc2[nH]c(-c3ccco3)c(-c3cc(OC)c(OC)c(OC)c3)c2c1	170 nM

Same assay, conditions: Homo sapiens, read-out: Log LC50 (the source's name) (converted)

Structure (SMILES)	CC50
COc1ccc2[nH]c(-c3ccco3)c(-c3cc(OC)c(OC)c(OC)c3)c2c1	7.24 µM

Tested on: SK-MEL-28
Assay: Antineoplastic activity against SK-MEL-28 (human melanoma) cell line.
Format: functional, cell-based
Conditions: not given

Structure (SMILES)	IC50
COc1cc(CC(=O)c2ccoc2)cc(OC)c1OC	7.24 µM
COc1ccc2[nH]c(-c3ccc4c(c3)OCO4)c(-c3cc(OC)c(OC)c(OC)c3)c2c1	6.31 µM
COc1cc(CCc2ccc3c(c2)OCO3)cc(OC)c1OC	6.31 µM
COc1ccc2[nH]c(-c3ccoc3)c(-c3cc(OC)c(OC)c(OC)c3)c2c1	3.24 µM
COc1ccc2[nH]c(-c3ccc(C)o3)c(-c3cc(OC)c(OC)c(OC)c3)c2c1	5.13 µM
COc1cc(CC(O)c2ccoc2)cc(OC)c1OC (stereo not given)	72.4 µM
COc1cc(CC(O)c2ccc3ccccc3c2)cc(OC)c1OC (stereo not given)	2.95 µM
COc1cc(CC(=O)c2ccco2)cc(OC)c1OC	> 100 µM
COc1cc(CC(=O)c2ccc(C)o2)cc(OC)c1OC	8.71 µM
COc1cc(CC(O)c2ccc3c(c2)OCO3)cc(OC)c1OC (stereo not given)	> 100 µM
COc1cc(CCc2ccco2)cc(OC)c1OC	19.1 µM
COc1cc(CC(O)c2ccco2)cc(OC)c1OC (stereo not given)	36.3 µM
COc1cc(CCc2ccoc2)cc(OC)c1OC	> 100 µM
COc1cc(CCc2ccc(C)o2)cc(OC)c1OC	7.24 µM
COc1cc(CC(=O)c2ccc3ccccc3c2)cc(OC)c1OC	15.1 µM
COc1ccc2[nH]c(-c3ccc4ccccc4c3)c(-c3cc(OC)c(OC)c(OC)c3)c2c1	1.12 µM
COc1cc(CCc2ccc3ccccc3c2)cc(OC)c1OC	0.302 µM

Tested on: A549
Assay: Antineoplastic activity against A-549 (human lung carcinoma) cell line.
Format: functional, cell-based
Conditions: not given

Structure (SMILES)	IC50
COc1cc(CC(=O)c2ccoc2)cc(OC)c1OC	7.24 µM
COc1ccc2[nH]c(-c3ccc4c(c3)OCO4)c(-c3cc(OC)c(OC)c(OC)c3)c2c1	6.31 µM
COc1ccc2[nH]c(-c3ccoc3)c(-c3cc(OC)c(OC)c(OC)c3)c2c1	3.24 µM
COc1ccc2[nH]c(-c3ccc(C)o3)c(-c3cc(OC)c(OC)c(OC)c3)c2c1	5.13 µM
COc1cc(CC(O)c2ccoc2)cc(OC)c1OC (stereo not given)	72.4 µM
COc1ccc2[nH]c(-c3ccco3)c(-c3cc(OC)c(OC)c(OC)c3)c2c1	1.32 µM
COc1cc(CC(O)c2ccc3ccccc3c2)cc(OC)c1OC (stereo not given)	2.95 µM
COc1cc(CC(=O)c2ccco2)cc(OC)c1OC	> 100 µM
COc1cc(CC(=O)c2ccc(C)o2)cc(OC)c1OC	17.4 µM
COc1cc(CC(O)c2ccc3c(c2)OCO3)cc(OC)c1OC (stereo not given)	> 100 µM
COc1cc(CCc2ccco2)cc(OC)c1OC	19.1 µM
COc1cc(CC(O)c2ccco2)cc(OC)c1OC (stereo not given)	36.3 µM
COc1cc(CCc2ccoc2)cc(OC)c1OC	> 100 µM
COc1cc(CCc2ccc(C)o2)cc(OC)c1OC	7.24 µM
COc1cc(CC(=O)c2ccc3ccccc3c2)cc(OC)c1OC	15.1 µM
COc1ccc2[nH]c(-c3ccc4ccccc4c3)c(-c3cc(OC)c(OC)c(OC)c3)c2c1	1.12 µM

Tested on: SNB-19
Assay: Compound was evaluated for cytostatic activity against SNB-19 CNS cancer cell line
Format: functional
Conditions: Homo sapiens

Structure (SMILES)	GI50
COc1ccc2[nH]c(-c3ccco3)c(-c3cc(OC)c(OC)c(OC)c3)c2c1	22.9 nM

Same assay, conditions: Homo sapiens, read-out: Log LC50 (the source's name) (converted)

Structure (SMILES)	CC50
COc1ccc2[nH]c(-c3ccco3)c(-c3cc(OC)c(OC)c(OC)c3)c2c1	977 nM

Tested on: COLO 205
Assay: Compound was evaluated for cytostatic activity against COLO 205 colon cancer cell line
Format: functional
Conditions: Homo sapiens

Structure (SMILES)	GI50
COc1ccc2[nH]c(-c3ccco3)c(-c3cc(OC)c(OC)c(OC)c3)c2c1	186 nM

Same assay, conditions: Homo sapiens, read-out: Log LC50 (the source's name) (converted)

Structure (SMILES)	CC50
COc1ccc2[nH]c(-c3ccco3)c(-c3cc(OC)c(OC)c(OC)c3)c2c1	676 nM

Tested on: RPMI-8226
Assay: Compound was evaluated for cytostatic activity against the RPMI-8226 leukemia cell line
Format: functional
Conditions: Homo sapiens

Structure (SMILES)	GI50
COc1ccc2[nH]c(-c3ccco3)c(-c3cc(OC)c(OC)c(OC)c3)c2c1	91.2 nM

Same assay, conditions: Homo sapiens, read-out: Log LC50 (the source's name) (converted)

Structure (SMILES)	CC50
COc1ccc2[nH]c(-c3ccco3)c(-c3cc(OC)c(OC)c(OC)c3)c2c1	75.9 µM

Tested on: SK-MEL-5
Assay: Compound was evaluated for cytostatic activity against SK-MEL-5 melanoma cell line
Format: functional
Conditions: Homo sapiens

Structure (SMILES)	GI50
COc1ccc2[nH]c(-c3ccco3)c(-c3cc(OC)c(OC)c(OC)c3)c2c1	245 nM

Same assay, conditions: Homo sapiens, read-out: Log LC50 (the source's name) (converted)

Structure (SMILES)	CC50
COc1ccc2[nH]c(-c3ccco3)c(-c3cc(OC)c(OC)c(OC)c3)c2c1	28.8 µM

Tested on: HL-60
Assay: Compound was evaluated for cytostatic activity against the HL-60(TB) leukemia cell line
Format: functional
Conditions: Homo sapiens

Structure (SMILES)	GI50
COc1ccc2[nH]c(-c3ccco3)c(-c3cc(OC)c(OC)c(OC)c3)c2c1	51.3 nM

Same assay, conditions: Homo sapiens, read-out: Log LC50 (the source's name) (converted)

Structure (SMILES)	CC50
COc1ccc2[nH]c(-c3ccco3)c(-c3cc(OC)c(OC)c(OC)c3)c2c1	> 100 µM
